Assay results from PubChem BioAssay (NCI).
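Five concentrations, 48 hours, 96-well plates. GI50 marks 50% less growth. TGI: total growth inhibition.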

How the values were obtained:
Experiment in all cases: NCI-60 cell line screen, 48 h
786-0 renal = tested on: 786-0 renal
COLO 205 colon = tested on: COLO 205 colon
SNB-75 CNS = tested on: SNB-75 CNS
RXF 393 renal = tested on: RXF 393 renal
KM12 colon = tested on: KM12 colon
SF-268 CNS = tested on: SF-268 CNS
A549 NSCLC = tested on: A549 NSCLC
MOLT-4 leukemia = tested on: MOLT-4 leukemia
EKVX NSCLC = tested on: EKVX NSCLC
DU-145 prostate = tested on: DU-145 prostate
SW-620 colon = tested on: SW-620 colon
BT-549 breast = tested on: BT-549 breast
UO-31 renal = tested on: UO-31 renal
MCF7 breast = tested on: MCF7 breast
K-562 leukemia = tested on: K-562 leukemia
UACC-62 melanoma = tested on: UACC-62 melanoma
HCT-116 colon = tested on: HCT-116 colon
HOP-62 NSCLC = tested on: HOP-62 NSCLC
NCI-H23 lung = tested on: NCI-H23 lung
OVCAR-3 ovarian = tested on: OVCAR-3 ovarian
SF-539 CNS = tested on: SF-539 CNS
HS 578T breast = tested on: HS 578T breast
RPMI-8226 leukemia = tested on: RPMI-8226 leukemia
LOX IMVI melanoma = tested on: LOX IMVI melanoma
NCI/ADR-RES ovarian = tested on: NCI/ADR-RES ovarian
NCI-H522 lung = tested on: NCI-H522 lung
SK-MEL-28 melanoma = tested on: SK-MEL-28 melanoma
ACHN renal = tested on: ACHN renal
NCI-H226 lung = tested on: NCI-H226 lung
SK-MEL-2 melanoma = tested on: SK-MEL-2 melanoma
M14 melanoma = tested on: M14 melanoma
SR leukemia = tested on: SR leukemia
NCI-H460 lung = tested on: NCI-H460 lung
MDA-MB-468 breast = tested on: MDA-MB-468 breast
SK-MEL-5 melanoma = tested on: SK-MEL-5 melanoma
PC-3 prostate = tested on: PC-3 prostate
OVCAR-5 ovarian = tested on: OVCAR-5 ovarian
SK-OV-3 ovarian = tested on: SK-OV-3 ovarian
UACC-257 melanoma = tested on: UACC-257 melanoma
IGROV1 ovarian = tested on: IGROV1 ovarian
MDA-MB-231 breast = tested on: MDA-MB-231 breast
A498 renal = tested on: A498 renal
HCC-2998 colon = tested on: HCC-2998 colon
CAKI-1 renal = tested on: CAKI-1 renal
CCRF-CEM leukemia = tested on: CCRF-CEM leukemia
U251 CNS = tested on: U251 CNS
HCT-15 colon = tested on: HCT-15 colon
OVCAR-8 ovarian = tested on: OVCAR-8 ovarian
OVCAR-4 ovarian = tested on: OVCAR-4 ovarian
SN12C renal = tested on: SN12C renal
SF-295 CNS = tested on: SF-295 CNS
HL-60(TB) leukemia = tested on: HL-60(TB) leukemia
T-47D breast = tested on: T-47D breast
SNB-19 CNS = tested on: SNB-19 CNS
MALME-3M melanoma = tested on: MALME-3M melanoma
HT29 colon = tested on: HT29 colon
MDA-MB-435 = tested on: MDA-MB-435
TK-10 renal = tested on: TK-10 renal
HOP-92 NSCLC = tested on: HOP-92 NSCLC

`c1ccc(CSc2nnc(-c3ccc4nc(-c5ccccc5)[nH]c4c3)o2)cc1` gave a GI50 (786-0 renal) of 8.83 µM, a TGI (786-0 renal) of 22.9 µM and a GI50 (COLO 205 colon) of 32.6 µM. The TGI (COLO 205 colon) was > 100 µM, the GI50 (SNB-75 CNS) was 10.8 µM and the TGI (SNB-75 CNS) was 24.8 µM. For the same molecule, the GI50 (RXF 393 renal) was 4.77 µM, the TGI (RXF 393 renal) was 22.6 µM and the GI50 (KM12 colon) was 29.4 µM. The TGI (KM12 colon) was > 100 µM, the GI50 (SF-268 CNS) was 14.1 µM and the TGI (SF-268 CNS) was 38.8 µM. The GI50 (A549 NSCLC) was 12 µM, the TGI (A549 NSCLC) was 28.7 µM and the GI50 (MOLT-4 leukemia) was 5.75 µM. For the same molecule, the TGI (MOLT-4 leukemia) was > 100 µM, the GI50 (EKVX NSCLC) was 14.5 µM and the TGI (EKVX NSCLC) was > 100 µM. For the same molecule, the GI50 (DU-145 prostate) was 16.2 µM, the TGI (DU-145 prostate) was 37 µM and the GI50 (SW-620 colon) was 17.8 µM. For the same molecule, the TGI (SW-620 colon) was 40.3 µM, the GI50 (BT-549 breast) was 12.8 µM and the TGI (BT-549 breast) was 30.2 µM. The GI50 (UO-31 renal) was 11.3 µM, the TGI (UO-31 renal) was 23.7 µM and the GI50 (MCF7 breast) was 11.1 µM. The TGI (MCF7 breast) was 26.4 µM, the GI50 (K-562 leukemia) was 8.05 µM and the TGI (K-562 leukemia) was > 100 µM. It also gave a GI50 (UACC-62 melanoma) of 13.8 µM, a TGI (UACC-62 melanoma) of 31.4 µM and a GI50 (HCT-116 colon) of 11.9 µM. The TGI (HCT-116 colon) was 25.7 µM, the GI50 (HOP-62 NSCLC) was 20.2 µM and the TGI (HOP-62 NSCLC) was 44.8 µM. The GI50 (NCI-H23 lung) was 22.9 µM, the TGI (NCI-H23 lung) was 73.5 µM and the GI50 (OVCAR-3 ovarian) was 15.9 µM. The TGI (OVCAR-3 ovarian) was 33.6 µM, the GI50 (SF-539 CNS) was 11.3 µM and the TGI (SF-539 CNS) was 23.4 µM. It also gave a GI50 (HS 578T breast) of 18.8 µM, a TGI (HS 578T breast) of 57.2 µM and a GI50 (RPMI-8226 leukemia) of 7.03 µM. For the same molecule, the TGI (RPMI-8226 leukemia) was > 100 µM, the GI50 (LOX IMVI melanoma) was 15.8 µM and the TGI (LOX IMVI melanoma) was 34 µM. For the same molecule, the GI50 (NCI/ADR-RES ovarian) was 11.1 µM, the TGI (NCI/ADR-RES ovarian) was 37.3 µM and the GI50 (NCI-H522 lung) was 12.1 µM. It also gave a TGI (NCI-H522 lung) of 39 µM, a GI50 (SK-MEL-28 melanoma) of 14.7 µM and a TGI (SK-MEL-28 melanoma) of 33 µM. The GI50 (ACHN renal) was 14.3 µM, the TGI (ACHN renal) was 28 µM and the GI50 (NCI-H226 lung) was 12.6 µM. It also gave a TGI (NCI-H226 lung) of 37.4 µM, a GI50 (SK-MEL-2 melanoma) of 17 µM and a TGI (SK-MEL-2 melanoma) of 64.1 µM. For the same molecule, the GI50 (M14 melanoma) was 14.6 µM, the TGI (M14 melanoma) was 36.5 µM and the GI50 (SR leukemia) was 22.4 µM. For the same molecule, the TGI (SR leukemia) was > 100 µM, the GI50 (NCI-H460 lung) was 12.3 µM and the TGI (NCI-H460 lung) was 27.5 µM. It also gave a GI50 (MDA-MB-468 breast) of 7.57 µM, a TGI (MDA-MB-468 breast) of 27.7 µM and a GI50 (SK-MEL-5 melanoma) of 7.25 µM. For the same molecule, the TGI (SK-MEL-5 melanoma) was > 100 µM, the GI50 (PC-3 prostate) was 11.3 µM and the TGI (PC-3 prostate) was 32.3 µM. For the same molecule, the GI50 (OVCAR-5 ovarian) was 24.1 µM, the TGI (OVCAR-5 ovarian) was 97.7 µM and the GI50 (SK-OV-3 ovarian) was 18.7 µM. The TGI (SK-OV-3 ovarian) was 48.5 µM, the GI50 (UACC-257 melanoma) was 23.6 µM and the TGI (UACC-257 melanoma) was 85.2 µM. It also gave a GI50 (IGROV1 ovarian) of 20.4 µM, a TGI (IGROV1 ovarian) of 46 µM and a GI50 (MDA-MB-231 breast) of 16.8 µM. For the same molecule, the TGI (MDA-MB-231 breast) was 34.7 µM, the GI50 (A498 renal) was 12.4 µM and the TGI (A498 renal) was 25.4 µM. For the same molecule, the GI50 (HCC-2998 colon) was 34.8 µM, the TGI (HCC-2998 colon) was > 100 µM and the GI50 (CAKI-1 renal) was 10.5 µM. The TGI (CAKI-1 renal) was 22.2 µM, the GI50 (CCRF-CEM leukemia) was 8.83 µM and the TGI (CCRF-CEM leukemia) was > 100 µM. The GI50 (U251 CNS) was 13.8 µM, the TGI (U251 CNS) was 29.8 µM and the GI50 (HCT-15 colon) was 8.29 µM. It also gave a TGI (HCT-15 colon) of 28.8 µM, a GI50 (OVCAR-8 ovarian) of 14.6 µM and a TGI (OVCAR-8 ovarian) of 30.4 µM. For the same molecule, the GI50 (OVCAR-4 ovarian) was 11.1 µM, the TGI (OVCAR-4 ovarian) was 23.3 µM and the GI50 (SN12C renal) was 12.1 µM. The TGI (SN12C renal) was 25.7 µM, the GI50 (SF-295 CNS) was 10.4 µM and the TGI (SF-295 CNS) was 24 µM. The GI50 (HL-60(TB) leukemia) was 24.2 µM, the TGI (HL-60(TB) leukemia) was > 100 µM and the GI50 (T-47D breast) was 3.6 µM. The TGI (T-47D breast) was 19.1 µM, the GI50 (SNB-19 CNS) was 14.3 µM and the TGI (SNB-19 CNS) was 30 µM. The GI50 (MALME-3M melanoma) was 12.5 µM, the TGI (MALME-3M melanoma) was 28.3 µM and the GI50 (HT29 colon) was 6.24 µM. For the same molecule, the TGI (HT29 colon) was > 100 µM, the GI50 (MDA-MB-435) was 12 µM and the TGI (MDA-MB-435) was 28.3 µM. It also gave a GI50 (TK-10 renal) of 14.8 µM, a TGI (TK-10 renal) of 29.7 µM and a GI50 (HOP-92 NSCLC) of 13.3 µM. The TGI (HOP-92 NSCLC) was 39.9 µM.
